Source: ChEMBL document CHEMBL3885881, “DrugMatrix”

Species on record: Rattus norvegicus
Experiment: DrugMatrix - Regimen: Daily Repeat
Assay type: toxicity, organism-based, Sprague-Dawley
Set-up: regimen Daily Repeat, gender Male, age 6-8 weeks
Settings: in vivo, po, route oral GAVAGE, vehicle .5 % CMC; for ABSOLUTE BASOPHIL / ABSOLUTE EOSINOPHIL / ABSOLUTE LYMPHOCYTE / ABSOLUTE MONOCYTE / ABSOLUTE SEGMENTED NEUTROPHIL / BASOPHIL / EOSINOPHIL / ERYTHROCYTE COUNT / HEMATOCRIT / HEMOGLOBIN / LEUKOCYTE COUNT / LYMPHOCYTE / MEAN CORPUSCULAR HEMOGLOBIN / MEAN CORPUSCULAR HEMOGLOBIN CONCENTRATION / MEAN CORPUSCULAR VOLUME / MONOCYTE / NEUTROPHIL / NUCLEATED RED BLOOD CELLS / PLATELET COUNT: tissue Blood; for ALANINE AMINOTRANSFERASE / ALBUMIN / ALKALINE PHOSPHATASE / ASPARTATE AMINOTRANSFERASE / BLOOD UREA NITROGEN / CARBON DIOXIDE / CHLORIDE / CHOLESTEROL / CREATINE PHOSPHOKINASE / CREATININE / GLUCOSE / LACTATE DEHYDROGENASE / LIPASE / PHOSPHORUS / POTASSIUM / SODIUM / TOTAL BILIRUBIN / TOTAL PROTEIN / URIC ACID: tissue Plasma
[1] = 10 mg/kg, 72 h, dose level Low, time 3 day
[2] = 10 mg/kg, 120 h, dose level Low, time 5 day
[3] = 1750 mg/kg, 72 h, dose level High, time 3 day
[4] = 1750 mg/kg, 120 h, dose level High, time 5 day

In the case of CCOC(=O)[C@H](CCc1ccccc1)N[C@H]1CCc2ccccc2N(CC(=O)O)C1=O [BENAZEPRIL], the “ABSOLUTE BASOPHIL” value [1] is reported as 0 CELLS/uL, the “ABSOLUTE EOSINOPHIL” value [1] is reported as 0 CELLS/uL and the “ABSOLUTE LYMPHOCYTE” value [1] is reported as 8474.33 CELLS/uL. For the same molecule, the “ABSOLUTE MONOCYTE” value [1] was 40.67 CELLS/uL, the “ABSOLUTE SEGMENTED NEUTROPHIL” value [1] was 418.33 CELLS/uL and the BASOPHIL [1] was 0%. The EOSINOPHIL [1] was 0%, the “ERYTHROCYTE COUNT” value [1] was 5.44 x10E6/uL and the HEMATOCRIT [1] was 35.27%. For the same molecule, the HEMOGLOBIN [1] was 14.3 G/DL, the “LEUKOCYTE COUNT” value [1] was 8.93 x10E3/uL and the LYMPHOCYTE [1] was 94.33%. For the same molecule, the “MEAN CORPUSCULAR HEMOGLOBIN” value [1] was 26.27 pg, the “MEAN CORPUSCULAR HEMOGLOBIN CONCENTRATION” value [1] was 40.53 G/DL and the “MEAN CORPUSCULAR VOLUME” value [1] was 64.8 fL. The MONOCYTE [1] was 0.67%, the NEUTROPHIL [1] was 5% and the “NUCLEATED RED BLOOD CELLS” value [1] was 0 /100WBC. The “PLATELET COUNT” value [1] was 1050 x10E3/uL, the “ALANINE AMINOTRANSFERASE” value [1] was 47.33 u/L and the ALBUMIN [1] was 4.6 G/DL. For the same molecule, the “ALKALINE PHOSPHATASE” value [1] was 428.33 u/L, the “ASPARTATE AMINOTRANSFERASE” value [1] was 84.67 u/L and the “BLOOD UREA NITROGEN” value [1] was 18 mg/dL. The “CARBON DIOXIDE” value [1] was 34.33 mmol/L, the CHLORIDE [1] was 99 MEQ/L and the CHOLESTEROL [1] was 78.67 mg/dL. For the same molecule, the “CREATINE PHOSPHOKINASE” value [1] was 322 u/L, the CREATININE [1] was 0.22 mg/dL and the GLUCOSE [1] was 135.33 mg/dL. The “LACTATE DEHYDROGENASE” value [1] was 124.67 u/L, the LIPASE [1] was 10 u/L and the PHOSPHORUS [1] was 10.63 mg/dL. The POTASSIUM [1] was 6.53 MEQ/L, the SODIUM [1] was 145.23 MEQ/L and the “TOTAL BILIRUBIN” value [1] was 0.2 mg/dL. The “TOTAL PROTEIN” value [1] was 6.57 G/DL, the “URIC ACID” value [1] was 0.83 mg/dL and the “ABSOLUTE BASOPHIL” value [2] was 0 CELLS/uL. The “ABSOLUTE EOSINOPHIL” value [2] was 90 CELLS/uL, the “ABSOLUTE LYMPHOCYTE” value [2] was 12851.33 CELLS/uL and the “ABSOLUTE MONOCYTE” value [2] was 265.67 CELLS/uL. The “ABSOLUTE SEGMENTED NEUTROPHIL” value [2] was 1459.67 CELLS/uL, the BASOPHIL [2] was 0% and the EOSINOPHIL [2] was 0.67%. For the same molecule, the “ERYTHROCYTE COUNT” value [2] was 5.31 x10E6/uL, the HEMATOCRIT [2] was 33.43% and the HEMOGLOBIN [2] was 13.47 G/DL. The “LEUKOCYTE COUNT” value [2] was 14.67 x10E3/uL, the LYMPHOCYTE [2] was 88% and the “MEAN CORPUSCULAR HEMOGLOBIN” value [2] was 25.33 pg. For the same molecule, the “MEAN CORPUSCULAR HEMOGLOBIN CONCENTRATION” value [2] was 40.27 G/DL, the “MEAN CORPUSCULAR VOLUME” value [2] was 62.9 fL and the MONOCYTE [2] was 2%. The NEUTROPHIL [2] was 9.33%, the “NUCLEATED RED BLOOD CELLS” value [2] was 0 /100WBC and the “PLATELET COUNT” value [2] was 1304.67 x10E3/uL. For the same molecule, the “ALANINE AMINOTRANSFERASE” value [2] was 52.67 u/L, the ALBUMIN [2] was 4.2 G/DL and the “ALKALINE PHOSPHATASE” value [2] was 304.33 u/L. For the same molecule, the “ASPARTATE AMINOTRANSFERASE” value [2] was 76 u/L, the “BLOOD UREA NITROGEN” value [2] was 18 mg/dL and the “CARBON DIOXIDE” value [2] was 32 mmol/L. For the same molecule, the CHLORIDE [2] was 102 MEQ/L, the CHOLESTEROL [2] was 73.67 mg/dL and the “CREATINE PHOSPHOKINASE” value [2] was 234.67 u/L. The CREATININE [2] was 0.15 mg/dL, the GLUCOSE [2] was 160.67 mg/dL and the “LACTATE DEHYDROGENASE” value [2] was 106.67 u/L. For the same molecule, the LIPASE [2] was 9 u/L, the PHOSPHORUS [2] was 13.27 mg/dL and the POTASSIUM [2] was 7.06 MEQ/L. For the same molecule, the SODIUM [2] was 144.9 MEQ/L, the “TOTAL BILIRUBIN” value [2] was 0.2 mg/dL and the “TOTAL PROTEIN” value [2] was 6.27 G/DL. The “URIC ACID” value [2] was 1.57 mg/dL, the “ABSOLUTE BASOPHIL” value [3] was 0 CELLS/uL and the “ABSOLUTE EOSINOPHIL” value [3] was 139.33 CELLS/uL. The “ABSOLUTE LYMPHOCYTE” value [3] was 16004 CELLS/uL, the “ABSOLUTE MONOCYTE” value [3] was 0 CELLS/uL and the “ABSOLUTE SEGMENTED NEUTROPHIL” value [3] was 1823.33 CELLS/uL. For the same molecule, the BASOPHIL [3] was 0%, the EOSINOPHIL [3] was 0.67% and the “ERYTHROCYTE COUNT” value [3] was 5.02 x10E6/uL. The HEMATOCRIT [3] was 32.27%, the HEMOGLOBIN [3] was 13.23 G/DL and the “LEUKOCYTE COUNT” value [3] was 17.97 x10E3/uL. The LYMPHOCYTE [3] was 89.33%, the “MEAN CORPUSCULAR HEMOGLOBIN” value [3] was 26.43 pg and the “MEAN CORPUSCULAR HEMOGLOBIN CONCENTRATION” value [3] was 41.03 G/DL. For the same molecule, the “MEAN CORPUSCULAR VOLUME” value [3] was 64.37 fL, the MONOCYTE [3] was 0% and the NEUTROPHIL [3] was 10%. The “NUCLEATED RED BLOOD CELLS” value [3] was 0 /100WBC, the “PLATELET COUNT” value [3] was 1175.67 x10E3/uL and the “ALANINE AMINOTRANSFERASE” value [3] was 47.67 u/L. For the same molecule, the ALBUMIN [3] was 4.13 G/DL, the “ALKALINE PHOSPHATASE” value [3] was 388 u/L and the “ASPARTATE AMINOTRANSFERASE” value [3] was 83.33 u/L. The “BLOOD UREA NITROGEN” value [3] was 23.67 mg/dL, the “CARBON DIOXIDE” value [3] was 28.33 mmol/L and the CHLORIDE [3] was 101 MEQ/L. The CHOLESTEROL [3] was 63.67 mg/dL, the “CREATINE PHOSPHOKINASE” value [3] was 244.67 u/L and the CREATININE [3] was 0.24 mg/dL. The GLUCOSE [3] was 152.33 mg/dL, the “LACTATE DEHYDROGENASE” value [3] was 297.33 u/L and the LIPASE [3] was 9.33 u/L. The PHOSPHORUS [3] was 11.27 mg/dL, the POTASSIUM [3] was 7.42 MEQ/L and the SODIUM [3] was 140.93 MEQ/L. The “TOTAL BILIRUBIN” value [3] was 0.23 mg/dL, the “TOTAL PROTEIN” value [3] was 5.73 G/DL and the “URIC ACID” value [3] was 1.73 mg/dL. The “ABSOLUTE BASOPHIL” value [4] was 0 CELLS/uL, the “ABSOLUTE EOSINOPHIL” value [4] was 0 CELLS/uL and the “ABSOLUTE LYMPHOCYTE” value [4] was 16017 CELLS/uL. The “ABSOLUTE MONOCYTE” value [4] was 660 CELLS/uL, the “ABSOLUTE SEGMENTED NEUTROPHIL” value [4] was 1423 CELLS/uL and the BASOPHIL [4] was 0%. For the same molecule, the EOSINOPHIL [4] was 0%, the “ERYTHROCYTE COUNT” value [4] was 5.54 x10E6/uL and the HEMATOCRIT [4] was 33.43%. The HEMOGLOBIN [4] was 13.43 G/DL, the “LEUKOCYTE COUNT” value [4] was 18.1 x10E3/uL and the LYMPHOCYTE [4] was 89.33%. The “MEAN CORPUSCULAR HEMOGLOBIN” value [4] was 24.3 pg, the “MEAN CORPUSCULAR HEMOGLOBIN CONCENTRATION” value [4] was 40.2 G/DL and the “MEAN CORPUSCULAR VOLUME” value [4] was 60.5 fL. For the same molecule, the MONOCYTE [4] was 3.67%, the NEUTROPHIL [4] was 7% and the “NUCLEATED RED BLOOD CELLS” value [4] was 0.33 /100WBC. The “PLATELET COUNT” value [4] was 1330 x10E3/uL, the “ALANINE AMINOTRANSFERASE” value [4] was 49.67 u/L and the ALBUMIN [4] was 4.03 G/DL. For the same molecule, the “ALKALINE PHOSPHATASE” value [4] was 380.33 u/L, the “ASPARTATE AMINOTRANSFERASE” value [4] was 85.33 u/L and the “BLOOD UREA NITROGEN” value [4] was 44 mg/dL. The “CARBON DIOXIDE” value [4] was 30 mmol/L, the CHLORIDE [4] was 104.33 MEQ/L and the CHOLESTEROL [4] was 74.67 mg/dL. The “CREATINE PHOSPHOKINASE” value [4] was 585 u/L, the CREATININE [4] was 0.27 mg/dL and the GLUCOSE [4] was 150.67 mg/dL. The “LACTATE DEHYDROGENASE” value [4] was 227 u/L, the LIPASE [4] was 9.33 u/L and the PHOSPHORUS [4] was 10.53 mg/dL. For the same molecule, the POTASSIUM [4] was 6.39 MEQ/L, the SODIUM [4] was 143.17 MEQ/L and the “TOTAL BILIRUBIN” value [4] was 0.2 mg/dL. For the same molecule, the “TOTAL PROTEIN” value [4] was 6 G/DL and the “URIC ACID” value [4] was 1.53 mg/dL.
